Test results taken from patent publication US20050130978A1, “Novel crystal of quinoxalinedione derivative anhydride” (priority 2002, published 2005).

Tests used:
cerebral infarction = settings: focal cerebral ischemia model; Non-Patent References 1 and 2; cited from earlier work
[1] = Storage stability of the bulk; type: physicochemical; settings: should be refrigerated to ensure stability
[2] = cited from earlier work
[3] = Hygroscopicity test (time course weight changes under controlled relative humidity at 25° C.); type: physicochemical; design: Time course weight changes: unit not given here; settings: for Hygroscopicity: ˜0% to 93% RH, up to 7 days
Experimental: About 1 g each of the compound (I) and the compound (II) of anhydride compound A were weighed accurately in weighing bottles (seven) of known weight, then stored under the following conditions at 25° C., and time course weight changes were measured.
RH herein means relative humidity.

AMPA receptor = settings: tautomer, salt, hydrate or solvate; Patent Reference 1; cited from earlier work
audiogenic seizure = settings: DBA/2 mouse; tautomer, salt, hydrate or solvate; Patent Reference 1; cited from earlier work
[4] = test system: kainic acid neurotoxicity; settings: tautomer, salt, hydrate or solvate; Patent Reference 1; cited from earlier work
[5] = ˜0% RH (silica gel), 25° C., Day 1
[6] = ˜0% RH (silica gel), 25° C., Day 2
[7] = ˜0% RH (silica gel), 25° C., Day 4
[8] = ˜0% RH (silica gel), 25° C., Day 7

## O=C(O)Cn1c(=O)c(=O)[nH]c2cc([N+](=O)[O-])c(-n3ccnc3)cc21 [1 hydrate of the compound A, [7-(1H-imidazol-1-yl)-6-nitro-2,3-dioxo-3,4-dihydroquinoxalin-1(2H)-yl]acetic acid]
Cerebral infarction
  Reducing effect on the volume of cerebral infarction: excellent reducing effect
[1]
  Storage stability (impurities): may increase impurities depending on storage condition
[2]; Non-Patent References 1 and 2
  Water-solubility: high water-solubility

## O=C(O)Cn1c(=O)c(=O)[nH]c2cc([N+](=O)[O-])c(-n3ccnc3)cc21 [compound (I), [7-(1H-imidazol-1-yl)-6-nitro-2,3-dioxo-3,4-dihydroquinoxalin-1(2H)-yl]acetic acid]
[3]
  Stability against humidity: excellent stability against humidity
[3]; 33% RH, 25° C., Day 1
  Time course weight changes: 0.09
[3]; 33% RH, 25° C., Day 2
  Time course weight changes: 0.06
[3]; 33% RH, 25° C., Day 4
  Time course weight changes: 0.10
[3]; 33% RH, 25° C., Day 7
  Time course weight changes: 0.08
[3]; 51% RH, 25° C., Day 1
  Time course weight changes: 0.03
[3]; 51% RH, 25° C., Day 2
  Time course weight changes: 0.04
[3]; 51% RH, 25° C., Day 4
  Time course weight changes: 0.10
[3]; 51% RH, 25° C., Day 7
  Time course weight changes: 0.09
[3]; 63.5% RH, 25° C., Day 1
  Time course weight changes: 0.03
[3]; 63.5% RH, 25° C., Day 2
  Time course weight changes: 0.06
[3]; 63.5% RH, 25° C., Day 4
  Time course weight changes: 0.10
[3]; 63.5% RH, 25° C., Day 7
  Time course weight changes: 0.11
[3]; 75% RH, 25° C., Day 1
  Time course weight changes: 0.04
[3]; 75% RH, 25° C., Day 2
  Time course weight changes: 0.07
[3]; 75% RH, 25° C., Day 4
  Time course weight changes: 0.13
[3]; 75% RH, 25° C., Day 7
  Time course weight changes: 0.10
[3]; 84% RH, 25° C., Day 1
  Time course weight changes: 0.05
[3]; 84% RH, 25° C., Day 2
  Time course weight changes: 0.09
[3]; 84% RH, 25° C., Day 4
  Time course weight changes: 0.11
[3]; 84% RH, 25° C., Day 7
  Time course weight changes: 0.13
[3]; 93% RH, 25° C., Day 1
  Time course weight changes: 0.09
[3]; 93% RH, 25° C., Day 2
  Time course weight changes: 0.10
[3]; 93% RH, 25° C., Day 4
  Time course weight changes: 0.15
[3]; 93% RH, 25° C., Day 7
  Time course weight changes: 0.13
[3]; [5]
  Time course weight changes: 0.03
[3]; [6]
  Time course weight changes: −0.01
[3]; [7]
  Time course weight changes: 0.02
[3]; [8]
  Time course weight changes: 0.01
[3]; 25° C.
  Hygroscopicity: stable under any relative humidity conditions almost without showing hygroscopicity

## O=C(O)Cn1c(=O)c(=O)[nH]c2cc([N+](=O)[O-])c(-n3ccnc3)cc21 [compound (II), [7-(1H-imidazol-1-yl)-6-nitro-2,3-dioxo-3,4-dihydroquinoxalin-1(2H)-yl]acetic acid]
[3]
  Stability against humidity: unstable against humidity
[3]; 33% RH, 25° C., Day 1
  Time course weight changes: 5.26
[3]; 33% RH, 25° C., Day 2
  Time course weight changes: 5.29
[3]; 33% RH, 25° C., Day 4
  Time course weight changes: 5.32
[3]; 33% RH, 25° C., Day 7
  Time course weight changes: 5.33
[3]; 51% RH, 25° C., Day 1
  Time course weight changes: 5.39
[3]; 51% RH, 25° C., Day 2
  Time course weight changes: 5.39
[3]; 51% RH, 25° C., Day 4
  Time course weight changes: 5.40
[3]; 51% RH, 25° C., Day 7
  Time course weight changes: 5.38
[3]; 63.5% RH, 25° C., Day 1
  Time course weight changes: 5.47
[3]; 63.5% RH, 25° C., Day 2
  Time course weight changes: 5.47
[3]; 63.5% RH, 25° C., Day 4
  Time course weight changes: 5.49
[3]; 63.5% RH, 25° C., Day 7
  Time course weight changes: 5.49
[3]; 75% RH, 25° C., Day 1
  Time course weight changes: 5.47
[3]; 75% RH, 25° C., Day 2
  Time course weight changes: 5.47
[3]; 75% RH, 25° C., Day 4
  Time course weight changes: 5.51
[3]; 75% RH, 25° C., Day 7
  Time course weight changes: 5.46
[3]; 84% RH, 25° C., Day 1
  Time course weight changes: 5.51
[3]; 84% RH, 25° C., Day 2
  Time course weight changes: 5.52
[3]; 84% RH, 25° C., Day 4
  Time course weight changes: 5.52
[3]; 84% RH, 25° C., Day 7
  Time course weight changes: 5.51
[3]; 93% RH, 25° C., Day 1
  Time course weight changes: 5.52
[3]; 93% RH, 25° C., Day 2
  Time course weight changes: 5.49
[3]; 93% RH, 25° C., Day 4
  Time course weight changes: 5.54
[3]; 93% RH, 25° C., Day 7
  Time course weight changes: 5.51
[3]; after one day, at least 33% RH or more, 25° C.
  Absorbed water: 1 mol water per mol compound
[3]; [5]
  Time course weight changes: 0.09
[3]; [6]
  Time course weight changes: 0.08
[3]; [7]
  Time course weight changes: 0.07
[3]; [8]
  Time course weight changes: 0.04
[3]; 25° C.
  Hygroscopicity: strong hygroscopicity

## O=C(O)Cn1c(=O)c(=O)[nH]c2cc([N+](=O)[O-])c(-n3ccnc3)cc21 [compound A, [7-(1H-imidazol-1-yl)-6-nitro-2,3-dioxo-3,4-dihydroquinoxalin-1(2H)-yl]acetic acid]
AMPA receptor
  Affinity for the AMPA receptor: high affinity
Audiogenic seizure
  Anticonvulsant effect for audiogenic seizure: potent activities
[4]
  Inhibitory action against kainic acid neurotoxicity: potent activities
[2]; Patent Reference 1
  Solubility: excellent solubility
